Tests used:
[1] = target: Prostaglandin E2 receptor EP4 subtype (Homo sapiens, UniProt P35408)
Description: Antagonist activity at human EP4 expressed in CHO cells coexpressing G16-alpha assessed as intracellular calcium flux preincubated for 15 mins followed by addition of PGE2 by calcium flux assay

[2] = target: T1, Prostaglandin E2 receptor EP3 subtype (Homo sapiens, UniProt P43115)
T1 sequence (P43115 whole entry): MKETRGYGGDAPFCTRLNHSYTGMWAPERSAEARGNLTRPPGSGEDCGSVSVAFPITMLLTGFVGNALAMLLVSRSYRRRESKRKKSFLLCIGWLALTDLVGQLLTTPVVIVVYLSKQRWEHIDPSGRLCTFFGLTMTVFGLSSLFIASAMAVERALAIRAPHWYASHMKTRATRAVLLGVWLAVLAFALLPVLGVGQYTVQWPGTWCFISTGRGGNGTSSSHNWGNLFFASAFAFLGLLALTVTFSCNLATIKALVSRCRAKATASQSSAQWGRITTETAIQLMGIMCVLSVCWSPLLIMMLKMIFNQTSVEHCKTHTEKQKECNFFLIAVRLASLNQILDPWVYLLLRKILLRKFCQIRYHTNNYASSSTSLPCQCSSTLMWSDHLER
Description: Antagonist activity at human EP3 expressed in CHO cells coexpressing G16-alpha assessed as intracellular calcium flux preincubated for 15 mins followed by addition of PGE2 by calcium flux assay

[3] = target: Prostaglandin E2 receptor EP2 subtype (Homo sapiens, UniProt P43116)
Description: Antagonist activity at human EP2 expressed in CHO cells coexpressing G16-alpha assessed as intracellular calcium flux preincubated for 15 mins followed by addition of PGE2 by calcium flux assay

[4] = target: Prostaglandin E2 receptor EP4 subtype (Mus musculus, UniProt P32240); assay: Antagonist activity at mouse EP4 expressed in CHO cells coexpressing G16-alpha assessed as intracellular calcium flux preincubated for 15 mins followed by addition of PGE2 by calcium flux assay; assay type: functional, cell-based
[5] = target: T2, Prostaglandin E2 receptor EP1 subtype (Homo sapiens, UniProt P34995); assay: Antagonist activity at human EP1 expressed in CHO cells coexpressing G16-alpha assessed as intracellular calcium flux preincubated for 15 mins followed by addition of PGE2 by calcium flux assay; assay type: functional, cell-based
T2 sequence (P34995 whole entry): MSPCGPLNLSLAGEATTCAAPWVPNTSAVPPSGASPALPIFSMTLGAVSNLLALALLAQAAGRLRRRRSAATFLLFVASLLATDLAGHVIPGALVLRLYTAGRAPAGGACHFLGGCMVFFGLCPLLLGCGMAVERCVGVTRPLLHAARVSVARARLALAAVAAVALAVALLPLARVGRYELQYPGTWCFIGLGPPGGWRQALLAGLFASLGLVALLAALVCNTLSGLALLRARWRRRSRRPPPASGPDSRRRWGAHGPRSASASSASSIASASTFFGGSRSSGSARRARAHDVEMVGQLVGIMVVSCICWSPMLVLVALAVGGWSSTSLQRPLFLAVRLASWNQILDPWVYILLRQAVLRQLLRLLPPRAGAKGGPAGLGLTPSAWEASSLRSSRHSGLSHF

CYP2C9 = CYP2C9 (Homo sapiens, UniProt P11712); assay: Inhibition of CYP2C9 in human liver microsomes at 20 uM using tolbutamide as substrate incubated for 60 mins by HPLC analysis relative to control; assay type: ADME; conditions: probe tolbutamide
CYP1A2 = target: T3, CYP1A2 (Homo sapiens, UniProt P05177); assay: Inhibition of CYP1A2 in human liver microsomes at 20 uM using phenacetin as substrate incubated for 30 mins by HPLC analysis relative to control; assay type: ADME; conditions: probe phenacetin
T3 sequence (P05177 whole entry): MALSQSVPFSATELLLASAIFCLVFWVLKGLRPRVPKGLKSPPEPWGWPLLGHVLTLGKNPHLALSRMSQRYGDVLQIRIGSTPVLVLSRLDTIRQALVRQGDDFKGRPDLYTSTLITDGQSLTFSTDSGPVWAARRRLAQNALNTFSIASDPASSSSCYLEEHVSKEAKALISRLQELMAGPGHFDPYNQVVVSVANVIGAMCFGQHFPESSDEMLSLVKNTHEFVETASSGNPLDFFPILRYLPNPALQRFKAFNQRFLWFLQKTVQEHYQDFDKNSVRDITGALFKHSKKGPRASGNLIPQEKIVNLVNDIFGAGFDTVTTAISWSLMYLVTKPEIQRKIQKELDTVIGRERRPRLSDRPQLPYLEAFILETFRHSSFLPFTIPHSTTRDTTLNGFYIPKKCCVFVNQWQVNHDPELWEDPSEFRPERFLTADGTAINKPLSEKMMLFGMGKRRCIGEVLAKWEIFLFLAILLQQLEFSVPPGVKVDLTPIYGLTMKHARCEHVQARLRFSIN

CYP2E1 = CYP2E1 (Homo sapiens, UniProt P05181); assay: Inhibition of CYP2E1 in human liver microsomes at 20 uM using chlorzoxazone as substrate incubated for 60 mins by HPLC analysis relative to control; assay type: ADME; conditions: probe chlorzoxazone
CYP2B6 = target: T4, CYP2B6 (Homo sapiens, UniProt P20813); assay: Inhibition of CYP2B6 in human liver microsomes at 20 uM incubated for 60 mins by HPLC analysis relative to control; assay type: ADME
T4 sequence (P20813 whole entry): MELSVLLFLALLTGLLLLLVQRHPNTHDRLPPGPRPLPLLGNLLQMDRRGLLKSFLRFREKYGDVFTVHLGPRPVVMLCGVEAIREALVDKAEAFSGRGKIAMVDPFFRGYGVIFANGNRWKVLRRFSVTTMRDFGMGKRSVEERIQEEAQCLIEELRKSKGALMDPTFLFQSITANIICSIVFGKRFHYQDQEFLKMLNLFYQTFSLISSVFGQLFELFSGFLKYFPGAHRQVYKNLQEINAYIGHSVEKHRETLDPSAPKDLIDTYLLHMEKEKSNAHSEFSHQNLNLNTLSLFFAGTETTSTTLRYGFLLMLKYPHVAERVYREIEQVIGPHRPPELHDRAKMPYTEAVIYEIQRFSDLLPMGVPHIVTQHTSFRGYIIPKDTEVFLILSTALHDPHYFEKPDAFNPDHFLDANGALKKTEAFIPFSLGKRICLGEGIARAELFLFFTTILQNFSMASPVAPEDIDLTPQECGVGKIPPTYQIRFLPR

Cytochrome P450 3A4 = Cytochrome P450 3A4 (Homo sapiens, UniProt P08684); assay: Inhibition of CYP3A4 in human liver microsomes at 20 uM using testosterone as substrate incubated for 60 mins by HPLC analysis; assay type: ADME; conditions: 1 h
CYP2D6 = CYP2D6 (Homo sapiens, UniProt P10635); assay: Inhibition of CYP2D6 in human liver microsomes at 20 uM using dextromethorphan as substrate incubated for 60 mins by HPLC analysis relative to control; assay type: ADME; conditions: probe dextromethorphan
in vitro [6] = conditions: CD1, mouse, liver microsomes
in vitro [7] = conditions: human, liver microsomes
in vitro [8] = conditions: CD1, mouse, liver microsomes; remark: listed apart in the source
in vitro [9] = conditions: human, liver microsomes; remark: listed apart in the source
CT26 = assay: Antitumor activity against mouse CT26 cells xenografted in BALB/c mouse assessed as tumor growth inhibition at 150 mg/kg, po administerd daily and measured after two weeks; conditions: 336 h, read-out: TGI

Sequence of Prostaglandin E2 receptor EP4 subtype (Homo sapiens, UniProt P35408) (P35408 whole entry): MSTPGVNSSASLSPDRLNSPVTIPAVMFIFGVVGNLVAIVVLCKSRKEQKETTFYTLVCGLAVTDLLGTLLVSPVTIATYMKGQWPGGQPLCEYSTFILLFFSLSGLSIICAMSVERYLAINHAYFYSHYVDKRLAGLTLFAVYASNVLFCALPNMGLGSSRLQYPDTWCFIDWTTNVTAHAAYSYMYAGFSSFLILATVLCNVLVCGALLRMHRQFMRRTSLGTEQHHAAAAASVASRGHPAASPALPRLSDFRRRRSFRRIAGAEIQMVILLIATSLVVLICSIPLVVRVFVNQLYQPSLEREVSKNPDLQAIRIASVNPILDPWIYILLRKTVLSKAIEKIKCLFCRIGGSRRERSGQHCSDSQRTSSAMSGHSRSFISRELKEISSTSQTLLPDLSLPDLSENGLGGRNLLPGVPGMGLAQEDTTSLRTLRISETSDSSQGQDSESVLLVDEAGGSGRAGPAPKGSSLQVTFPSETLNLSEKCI
Sequence of Prostaglandin E2 receptor EP4 subtype (Mus musculus, UniProt P32240) (P32240 whole entry): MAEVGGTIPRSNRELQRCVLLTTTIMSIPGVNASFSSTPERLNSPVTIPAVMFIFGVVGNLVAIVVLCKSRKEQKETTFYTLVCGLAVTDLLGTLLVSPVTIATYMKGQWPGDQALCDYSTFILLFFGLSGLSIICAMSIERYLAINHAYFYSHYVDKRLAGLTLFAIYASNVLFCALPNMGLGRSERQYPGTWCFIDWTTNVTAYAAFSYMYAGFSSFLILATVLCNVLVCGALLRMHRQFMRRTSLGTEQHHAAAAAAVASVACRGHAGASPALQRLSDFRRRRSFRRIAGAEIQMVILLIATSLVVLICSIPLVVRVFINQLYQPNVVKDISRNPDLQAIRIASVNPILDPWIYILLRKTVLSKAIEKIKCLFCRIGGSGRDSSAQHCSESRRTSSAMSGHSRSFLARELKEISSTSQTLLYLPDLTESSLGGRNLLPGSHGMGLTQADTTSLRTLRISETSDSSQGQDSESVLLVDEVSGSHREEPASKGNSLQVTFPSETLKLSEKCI
Sequence of CYP2E1 (P05181 whole entry): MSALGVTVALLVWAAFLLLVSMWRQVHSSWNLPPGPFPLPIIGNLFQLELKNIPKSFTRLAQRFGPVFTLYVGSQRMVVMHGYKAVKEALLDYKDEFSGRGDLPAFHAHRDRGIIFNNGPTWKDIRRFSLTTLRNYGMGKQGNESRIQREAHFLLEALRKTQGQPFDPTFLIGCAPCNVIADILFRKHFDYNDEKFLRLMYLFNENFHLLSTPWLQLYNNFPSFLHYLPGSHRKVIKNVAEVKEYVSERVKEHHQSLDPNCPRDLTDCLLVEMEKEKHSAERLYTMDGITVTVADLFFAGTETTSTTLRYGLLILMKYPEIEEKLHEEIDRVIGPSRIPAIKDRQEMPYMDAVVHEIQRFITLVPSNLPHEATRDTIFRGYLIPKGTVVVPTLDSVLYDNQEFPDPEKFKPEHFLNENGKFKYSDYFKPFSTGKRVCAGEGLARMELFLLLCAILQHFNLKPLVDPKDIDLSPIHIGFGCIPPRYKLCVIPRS
Sequence of CYP2D6 (P10635 whole entry): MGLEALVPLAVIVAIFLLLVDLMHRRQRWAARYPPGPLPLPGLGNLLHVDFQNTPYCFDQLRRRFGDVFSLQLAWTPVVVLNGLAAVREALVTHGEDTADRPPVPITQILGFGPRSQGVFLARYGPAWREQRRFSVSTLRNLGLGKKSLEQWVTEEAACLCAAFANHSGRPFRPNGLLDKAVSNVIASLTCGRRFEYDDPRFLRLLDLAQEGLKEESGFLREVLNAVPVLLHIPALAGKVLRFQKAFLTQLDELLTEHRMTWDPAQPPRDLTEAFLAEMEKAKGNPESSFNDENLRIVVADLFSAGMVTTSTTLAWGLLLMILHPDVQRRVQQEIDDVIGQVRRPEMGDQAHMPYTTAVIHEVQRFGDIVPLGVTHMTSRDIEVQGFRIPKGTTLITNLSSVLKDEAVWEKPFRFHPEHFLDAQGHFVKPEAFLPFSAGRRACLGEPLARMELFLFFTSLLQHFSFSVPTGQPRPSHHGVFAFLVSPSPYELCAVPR
Sequence of Cytochrome P450 3A4 (P08684 whole entry): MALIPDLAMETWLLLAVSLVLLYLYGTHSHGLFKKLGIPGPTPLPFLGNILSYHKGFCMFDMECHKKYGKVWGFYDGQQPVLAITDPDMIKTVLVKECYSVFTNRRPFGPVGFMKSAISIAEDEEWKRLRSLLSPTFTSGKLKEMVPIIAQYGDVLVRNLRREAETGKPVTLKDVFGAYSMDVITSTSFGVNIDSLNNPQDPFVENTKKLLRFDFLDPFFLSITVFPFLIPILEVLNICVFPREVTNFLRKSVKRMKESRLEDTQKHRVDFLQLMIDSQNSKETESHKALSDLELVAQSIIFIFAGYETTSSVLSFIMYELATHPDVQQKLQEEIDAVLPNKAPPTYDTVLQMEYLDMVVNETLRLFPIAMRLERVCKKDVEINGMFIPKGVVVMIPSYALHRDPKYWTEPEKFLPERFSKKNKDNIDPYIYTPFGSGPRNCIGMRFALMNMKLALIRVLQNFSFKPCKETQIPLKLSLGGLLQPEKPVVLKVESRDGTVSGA
Sequence of CYP2C9 (P11712 whole entry): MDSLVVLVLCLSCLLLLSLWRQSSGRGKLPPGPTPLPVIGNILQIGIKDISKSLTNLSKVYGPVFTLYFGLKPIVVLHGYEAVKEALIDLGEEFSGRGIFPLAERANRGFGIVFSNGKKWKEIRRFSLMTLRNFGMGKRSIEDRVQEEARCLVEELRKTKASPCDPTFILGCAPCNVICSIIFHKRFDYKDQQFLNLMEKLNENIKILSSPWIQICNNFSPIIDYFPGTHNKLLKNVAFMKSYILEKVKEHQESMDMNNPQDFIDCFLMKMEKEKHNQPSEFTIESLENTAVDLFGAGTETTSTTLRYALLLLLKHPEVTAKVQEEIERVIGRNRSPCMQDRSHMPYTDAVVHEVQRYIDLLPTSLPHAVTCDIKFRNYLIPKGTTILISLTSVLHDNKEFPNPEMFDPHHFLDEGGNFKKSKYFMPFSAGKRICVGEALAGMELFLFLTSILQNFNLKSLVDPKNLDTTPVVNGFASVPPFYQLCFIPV
Sequence of Prostaglandin E2 receptor EP2 subtype (P43116 whole entry): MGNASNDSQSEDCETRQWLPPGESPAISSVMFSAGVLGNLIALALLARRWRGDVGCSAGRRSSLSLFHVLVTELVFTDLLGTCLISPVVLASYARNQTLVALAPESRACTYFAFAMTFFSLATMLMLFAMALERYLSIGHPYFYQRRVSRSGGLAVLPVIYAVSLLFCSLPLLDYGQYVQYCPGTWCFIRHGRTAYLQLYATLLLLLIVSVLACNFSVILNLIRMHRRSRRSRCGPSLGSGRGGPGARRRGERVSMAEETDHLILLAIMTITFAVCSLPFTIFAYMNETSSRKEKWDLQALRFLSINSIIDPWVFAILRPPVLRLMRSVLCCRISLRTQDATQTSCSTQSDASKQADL

For `COc1ccc(Cn2nnc(-c3ccccc3)c2C(=O)N[C@@H](C)c2ccc(C(=O)O)cc2)cc1OC`, the IC50 [1] was 119 nM.
With `C[C@H](NC(=O)c1c(C2CCCCC2)nnn1Cc1ccc(C(F)(F)F)cc1)c1ccc(C(=O)O)cc1` the IC50 [1] was 161 nM.
In the case of `Cc1ccc(-c2nnn(Cc3ccc(C(F)(F)F)cc3)c2C(=O)N[C@@H](C)c2ccc(C(=O)O)cc2)s1`, the IC50 [2] is reported as over 10000 nM, the IC50 [3] is reported as over 10000 nM and the IC50 [4] is reported as 42.1 nM. It also gave an IC50 [5] of over 10000 nM.
Molecule `C/C=C/c1nnn(Cc2ccc(C(F)(F)F)cc2)c1C(=O)NCC1CCC(C(=O)O)CC1` (stereo not drawn) has an IC50 [4] of 220 nM.
With `C[C@H](NC(=O)c1c(-c2ccc(F)cc2)nnn1Cc1ccc(C(F)(F)F)cc1)c1ccc(C(=O)O)cc1` the IC50 [1] was 57.9 nM.
For `C[C@H](NC(=O)c1c(C2=CCCCC2)nnn1Cc1ccc(C(F)(F)F)cc1)c1ccc(C(=O)O)cc1`, the IC50 [1] was 183 nM.
`C[C@H](NC(=O)c1c(-c2ccccc2)nnn1CCOc1ccc(C(F)(F)F)cc1)c1ccc(C(=O)O)cc1` gave an IC50 [1] of 49.1 nM.
In the case of `C/C=C/c1nnn(Cc2ccc(C(F)(F)F)cc2)c1C(=O)NC1(c2ccc(C(=O)O)cc2)CC1`, the IC50 [1] is reported as 13.9 nM and the IC50 [4] is reported as 33.7 nM.
`C[C@H](NC(=O)c1nnn(CCc2ccc(F)cc2)c1C(F)(F)F)c1ccc(C(=O)O)cc1` showed an IC50 [1] of over 10000 nM.
In the case of `C[C@H](NC(=O)c1c(-c2ccccc2)nnn1CC1CCCCC1)c1ccc(C(=O)O)cc1`, the IC50 [1] is reported as over 10000 nM.
With `C[C@H](NC(=O)c1nnn(Cc2ccc(C(F)(F)F)cc2)c1C(F)(F)F)c1ccc(C(=O)O)cc1` the IC50 [1] was over 10000 nM.
Molecule `CCc1nnn(Cc2ccc(C(F)(F)F)cc2)c1C(=O)N[C@@H](C)c1ccc(C(=O)O)cc1` has an IC50 [1] of over 10000 nM.
`C[C@H](NC(=O)c1c(C2CCC2)nnn1Cc1ccc(C(F)(F)F)cc1)c1ccc(C(=O)O)cc1` gave an IC50 [1] of 75.3 nM.
With `CC#Cc1nnn(Cc2ccc(C(F)(F)F)cc2)c1C(=O)N[C@@H](C)c1ccc(C(=O)O)cc1` the inhibition at 1 h, 20 µM (CYP2C9) was 69%, the inhibition at 0.5 h, 20 µM (CYP1A2) was 82% and the IC50 [1] was 32 nM. It also gave an inhibition at 1 h, 20 µM (CYP2E1) of 76%, an IC50 [3] of over 10000 nM and an IC50 [4] of 70.9 nM. For the same molecule, the inhibition at 1 h, 20 µM (CYP2B6) was 34%, the “inhibition (INH)” value (Cytochrome P450 3A4) was “Not Active” and the inhibition at 1 h, 20 µM (CYP2D6) was 38%. The IC50 [5] was over 10000 nM.
In the case of `O=C(O)Cc1ccccc1Nc1c(Cl)cccc1Cl` [DICLOFENAC], the microsomal CLint at 1 h, 10 µM (in vitro [6]) is reported as 25.8 µL/min/mg, the microsomal CLint at 1 h, 10 µM (in vitro [7]) is reported as 131 µL/min/mg and the half-life at 1 h, 10 µM (in vitro [8]) is reported as 53.6 min. The half-life at 1 h, 10 µM (in vitro [9]) was 10.6 min.
With `C[C@H](NC(=O)c1c(C(F)F)nn(C)c1Oc1cccc(C(F)(F)F)c1)c1ccc(C(=O)O)cc1` [PALUPIPRANT] the inhibition at 1 h, 20 µM (CYP2C9) was 67%, the inhibition at 0.5 h, 20 µM (CYP1A2) was 41% and the inhibition at 1 h, 20 µM (CYP2E1) was 79%. It also gave an IC50 [4] of 181 nM, an inhibition at 1 h, 20 µM (CYP2B6) of 23% and an inhibition in vivo at 150 mg/kg (CT26) of 43.2%. The “inhibition (INH)” value (Cytochrome P450 3A4) was “Not Active” and the inhibition at 1 h, 20 µM (CYP2D6) was 35%.
For `C[C@]12CC[C@H]3[C@@H](CCC4=CC(=O)CC[C@@]43C)[C@@H]1CC[C@@H]2O` [TESTOSTERONE], the microsomal CLint at 1 h, 10 µM (in vitro [6]) was 479 µL/min/mg, the microsomal CLint at 1 h, 10 µM (in vitro [7]) was 71.3 µL/min/mg and the half-life at 1 h, 10 µM (in vitro [8]) was 2.9 min. It also gave a half-life at 1 h, 10 µM (in vitro [9]) of 19.4 min.

— ChEMBL document CHEMBL4376865, “Discovery and Characterization of 1H-1,2,3-Triazole Derivatives as Novel Prostanoid EP4 Receptor Antagonists for Cancer Immunotherapy” (J Med Chem, 2020)
